Experimental data from patent US5686416A, “Increasing blood-brain barrier permeability with permeabilizer peptides” (priority 1993, dated 1997).

What was measured:
C. neoformans = assay: Experimentally-induced cryptococcal meningitis in rabbits, CSF colony counts; format: in vivo, Cryptococcus neoformans; settings: 1 mg AmB/kg daily i.v., Days 11 and 14
Description: Four day old cultures of C. neoformans containing 100 μg of chloramphenicol per mL were absorbed on cotton swabs, suspended in 15 mM phosphate-buffered saline, and adjusted to approximately 5×10^7 colony forming units (CFU)/mL. New Zealand White rabbits (2-3 kg) were immunosuppressed with 2.5 mg cortisone acetate administered intramuscularly (i.m.) beginning one day prior to inoculation with C. neoformans (Day 0), and once daily thereafter until study termination. On Day 1 rabbits were sedated with ketamine (100-150 mg) and xylazine (15-25 mg) i.m., and intracisternally inoculated with 0.3 mL of C. neoformans suspension. On Day 4 CSF was collected and plated on agar plates containing chloramphenicol to establish a baseline level for C. neoformans counts (CFU/mL), and drug treatment was then initiated. CSF samples were also withdrawn for C. neoformans counts on Days 7, 11 and 14. The duration of drug treatment was 10 days.
Each group size generally consisted of three to five animals. All treatments were administered via an ear vein, and permeabilizer A-7 was always administered immediately prior to AmB. CSF samples were always withdrawn prior to drug therapy on treatment days.

9L Glioma cells = assay: Survival time of rats with brain tumor implants; format: in vivo
Description: Male Fischer 344 rats (200-250 g) were anesthetized with ketamine HCL (100 mg/kg) and acepromazine (10 mg/kg). The animals were placed in a stereotaxic device. The head of each animal was shaved and a midline incision was made to expose the skull. A small hole was drilled over the right sensorimotor cortex. A […] cell suspension (250,000 9L Glioma cells) was injected over 5 minutes into the right caudate putamen of each animal and the scalp sutured. Animals were observed daily for signs of failing health. When signs of very poor health were observed (eye hemorrhage or loss of righting reflex) animals were euthanatized and the brains examined for presence of tumor.
The results are shown in Table III as median survival with range.

dopamine receptors = settings: rats; 300 μg domperidone with or without 10 μg permeabilizer A-7, one hour before apomorphine 0.75 mg/kg s.c.
Description: Domperidone is a dopamine receptor antagonist used clinically as an anti-emetic by virtue of its action at the area postrema outside the blood-brain barrier.
The activity cages were standard size rat cages with two photocell beams running across the floor of each cage. Any movement of the rat through either of the beams was recorded by a computer. Locomotor activity was measured as the number of beam breaks in a sequence of 10-minute intervals over a two hour period.
The motor activity of the rats was measured in activity cages over 10-minute intervals for up to 2 hours post-apomorphine injection.

blood-brain barrier [1] = assay: Uptake of radiolabelled substances of different molecular weights into the brain (Table I)
Description: The animals were euthanatized 10 minutes after the co-administration and the radioactivity present in brain was measured as described previously for ^14 C sucrose.

opiate receptor = assay: Tail flick assay, antinociceptive effect of loperamide; format: in vivo; settings: mice; nalorphine 10 mg/kg i.p. 15 minutes before
Description: Female Nalb/C mice weighing approximately 20 g were used. The tail flick assay was performed using a Tail Flick Apparatus model TF6 (Emdie Instruments, Maidens, Va.). The intensity of the heat source was adjusted daily to yield a reaction time between 2.0 and 3.2 seconds in naive untreated mice. The maximum time of exposure to the heat source allowed was 7.5 seconds. The tail withdrawal reaction time of each mouse was measured 4 times at 10 second intervals immediately prior to intravenous injections of the experimental substances via the tail vein. The last three values were averaged and taken as baseline value (Vo). Another set of four measurements was taken at the following intervals after tail vein injection of the opiate receptor agonist loperamide with and without the other agents: immediately, 5 min, 10 min, 15 min, 30 min, and 60 min. The last three values for each of these time points (V) were averaged. […] The results were expressed as percent of maximum antinociceptive response according to the formula: 100×(V-Vo)/(7.5-Vo).

angiotensin II receptors = assay: Drinking behavior of rats with angiotensin II analogue; format: in vivo; settings: 1 μg β-Asp^1 -angiotensin II, 10 μg permeabilizer A-7, with or without 8 μg saralasin i.v., 1 hour
Description: The volume of water consumed by each rat over a 1 hour interval was measured.
The saralasin was given because it is a known angiotensin II receptor antagonist. Again, the volume of water consumed by each rat over a 1 hour interval was measured.

blood-brain barrier [2] = assay: Dose response of blood-brain barrier permeabilizers, sucrose uptake studies; format: in vivo; settings: mice; various amounts; FIGS. 3c and 3d
Description: Female Balb/C mice weighing approximately 20 g were used. All solutions were prepared in sterile phosphate-buffered saline. […] In other experiments, mice were euthanitized 10 minutes after the ^14 C sucrose administration. Blood was collected in heparinized tubes and centrifuged to separate plasma from the resulting pellet. Radioactivity in a 100 μl aliquot of plasma was measured by liquid scintillation counting after the addition of 15 ml of Aquasol-2 (Dupont). The brain was removed and homogenized in 2.5 ml of water and 2.5 ml of 1% sodium dodecyl sulfate (SDS). One ml of the homogenate was aliquoted and added to 15 ml of Aquasol-2 for counting. Brain uptake of sucrose was calculated and graphically expressed as percent of injected dose×100. […] Each data point represents the mean ± s.d. from 8 mice.

bradykinin receptor = target: T1, bradykinin receptor (Rattus norvegicus, UniProt P25023); assay: Displacement of [^3 H]-bradykinin binding on rat brain endothelial cells; settings: no competing peptide; corrected for nonspecific binding
T1 construct: endogenous in cells; host or cells: cultured rat brain microvessel endothelial cells, passages 9 to 12, intact monolayers
T1 sequence (P25023 1-396): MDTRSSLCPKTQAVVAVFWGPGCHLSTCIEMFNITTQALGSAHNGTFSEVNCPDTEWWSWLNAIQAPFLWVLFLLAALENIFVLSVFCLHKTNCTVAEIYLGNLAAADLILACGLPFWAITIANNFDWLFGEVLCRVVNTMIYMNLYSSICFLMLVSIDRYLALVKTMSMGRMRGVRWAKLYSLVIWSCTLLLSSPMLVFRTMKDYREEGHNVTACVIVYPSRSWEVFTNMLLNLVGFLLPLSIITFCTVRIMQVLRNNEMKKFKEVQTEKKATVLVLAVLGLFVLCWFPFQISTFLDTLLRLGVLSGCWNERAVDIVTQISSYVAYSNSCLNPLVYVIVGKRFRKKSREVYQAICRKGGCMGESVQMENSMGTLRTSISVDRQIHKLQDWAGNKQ
Description: Endothelial cells employed in this study were isolated from individual rat brain microvessels and cultured. For binding studies, cells at passages 9 to 12 were seeded (at a 1:5 split) onto gelatinized 24-well tissue culture dishes. Binding experiments were conducted on day 7 after seeding. […] All subsequent manipulations were performed in the cold room, unless otherwise indicated.
To initiate binding incubations, the buffer was removed from cell layers and replaced with 0.4 mL fresh binding buffer at 4° C. containing [^3 H-pro^2,3 ]-bradykinin ([^3 H]-bradykinin) and competing non-radioactive peptides at concentrations indicated for the individual experiments. Triplicate wells were used for each experimental condition. For later determination of cell number, where indicated, certain wells were covered with binding buffer without radioligand and incubated in parallel with the other samples. […]
The dissociated cells were collected, diluted into 10 mL Isoton diluent, and cell numbers were determined with a Coulter counter. […] The two aliquots were pooled into a single scintillation vial, 10 mL of Hydrofluor scintillation fluid was added and samples were counted for tritium in a scintillation counter. […] Aliquots of each [^3 H]-bradykinin dilution that was added to the cells were counted along with the other samples. […]

[3] = Table IV, additional experiment

C[C@@H]1[C@H](O)[C@@H](C)/C=C/C=C/C=C/C=C/C=C/C=C/C=C/[C@H](O[C@@H]2O[C@H](C)[C@@H](O)[C@H](N)[C@@H]2O)C[C@@H]2O[C@](O)(C[C@@H](O)C[C@@H](O)[C@H](O)CC[C@@H](O)C[C@@H](O)CC(=O)O[C@H]1C)C[C@H](O)[C@H]2C(=O)O [AmB, Amphotericin B]
CSF C. neoformans counts compared to controls (C. neoformans): significantly lowered

N.N.[Cl][Pt][Cl] [Cisplatin]
Median Survival (9L Glioma cells; Table III, Fischer 344 rats, 9L glioma, i.v. treatment days 5 through 14, cisplatin 200 μg/rat, A-7 50 μg, bradykinin 1 mg): 13 days
Survival, Range (9L Glioma cells; Table III, Fischer 344 rats, 9L glioma, treatment days 5 through 14): 9 to 18 days
Median Survival (9L Glioma cells; [3]): 15.5 days
Survival, Range (9L Glioma cells; [3]): 12 to 18 days

O=c1[nH]c2ccccc2n1CCCN1CCC(n2c(=O)[nH]c3cc(Cl)ccc32)CC1 [Domperidone]
effect on motor activity induced by apomorphine (dopamine receptors): little, if any, effect

OC[C@H]1O[C@@](CO)(O[C@H]2O[C@H](CO)[C@@H](O)[C@H](O)[C@H]2O)[C@@H](O)[C@@H]1O [^14 C-Sucrose, Sucrose]
% Injected Dose, +10 μg A-7 (blood-brain barrier [1]; mouse, in vivo, iv): 0.165 ± 0.049 % Injected Dose
% Injected Dose, Control (blood-brain barrier [1]; mouse, in vivo, iv): 0.059 ± 0.014 % Injected Dose

C=CCN1CC[C@]23c4c5ccc(O)c4O[C@H]2[C@@H](O)C=C[C@H]3[C@H]1C5 [nalorphine]
effect of pretreatment on the antinociceptive response to permeabilizer A-7 and loperamide (opiate receptor): completely antagonized

CNCC(=O)N[C@@H](CCCN=C(N)N)C(=O)N[C@H](C(=O)N[C@@H](Cc1ccc(O)cc1)C(=O)N[C@H](C(=O)N[C@@H](Cc1cnc[nH]1)C(=O)N1CCC[C@H]1C(=O)N[C@@H](C)C(=O)O)C(C)C)C(C)C [saralasin]
water consumption (angiotensin II receptors): remained within a normal range

Inulin [^3 H-Inulin]
% Injected Dose, +10 μg A-7 (blood-brain barrier [1]; mice, brain, labelled molecule i.v. with 10 μg permeabilizer A-7, 10 minutes, mean ± s.d.): 0.110 ± 0.016 % Injected Dose
% Injected Dose, Control (blood-brain barrier [1]; mice, brain, labelled molecule i.v. with saline, 10 minutes, mean ± s.d.): 0.075 ± 0.018 % Injected Dose

[D-Arg^0 ]-A-7 [A-14]
uptake of ^14 C-sucrose into the brain compared with A-7 (blood-brain barrier [2]): comparable to A-7

[dehydro Pro^2,7 ]-A-7 [A-9]
uptake of ^14 C-sucrose into the brain compared with A-7 (blood-brain barrier [2]): comparable to A-7

^3 H-Bovine Serum Albumin: radiolabelled bovine serum albumin, mol. weight 68,000
% Injected Dose, +10 μg A-7 (blood-brain barrier [1]; mouse, in vivo, iv): 0.209 ± 0.056 % Injected Dose
% Injected Dose, Control (blood-brain barrier [1]; mouse, in vivo, iv): 0.333 ± 0.098 % Injected Dose

arginine-proline-proline-glycine-phenylalanine-serine-proline-phenylalanine-arginine [[^3 H]-bradykinin]
Scatchard analysis of [^3 H]-bradykinin binding (bradykinin receptor): two affinity classes of [^3 H]-bradykinin binding site

B1: ^3 H-RNase: radiolabelled RNase, mol. weight 12,600 (protein, UniProt P61823 27-150, looked up)
Ribonuclease pancreatic: KETAAAKFERQHMDSSTSAASSSNYCNQMMKSRNLTKDRCKPVNTFVHESLADVQAVCSQKNVACKNGQTNCYQSYSTMSITDCRETGSSKYPNCAYKTTQANKHIIVACEGNPYVPVHFDASV
modifications: tritium label
% Injected Dose, +10 μg A-7 (blood-brain barrier [1]; mouse, in vivo, iv): 0.117 ± 0.030 % Injected Dose
% Injected Dose, Control (blood-brain barrier [1]; mouse, in vivo, iv): 0.123 ± 0.039 % Injected Dose

B2: ^3 H-Ovalbumin: radiolabelled ovalbumin, mol. weight 46,000 (protein, UniProt P01012 2-386, looked up)
Ovalbumin: GSIGAASMEFCFDVFKELKVHHANENIFYCPIAIMSALAMVYLGAKDSTRTQINKVVRFDKLPGFGDSIEAQCGTSVNVHSSLRDILNQITKPNDVYSFSLASRLYAEERYPILPEYLQCVKELYRGGLEPINFQTAADQARELINSWVESQTNGIIRNVLQPSSVDSQTAMVLVNAIVFKGLWEKAFKDEDTQAMPFRVTEQESKPVQMMYQIGLFRVASMASEKMKILELPFASGTMSMLVLLPDEVSGLEQLESIINFEKLTEWTSSNVMEERKIKVYLPRMKMEEKYNLTSVLMAMGITDVFSSSANLSGISSAESLKISQAVHAAHAEINEAGREVVGSAEAGVDAASVSEEFRADHPFLFCIKHIATNAVLFFGRCVSP
modifications: tritium label
% Injected Dose, +10 μg A-7 (blood-brain barrier [1]; mouse, in vivo, iv): 0.093 ± 0.017 % Injected Dose
% Injected Dose, Control (blood-brain barrier [1]; mouse, in vivo, iv): 0.079 ± 0.016 % Injected Dose
